Test results reported in patent US8816119B2, “Arylamide derivatives having antiandrogenic properties” (Medeia Therapeutics Ltd, priority 2010, dated 2014).
Residue numbers refer to the chain shown, from its start.

Assays:
Assay type in all cases: cell-based
WT AR = biological target: T1, WT AR (Homo sapiens, UniProt P10275); assay: Antagonism in WT AR, AR transactivation reporter gene assay in COS-1 cells, competitive setting with 50 nM testosterone; settings: 18 h
T1 construct: expressed in transfected cells; host or cells: COS-1
T1 sequence (P10275 1-920): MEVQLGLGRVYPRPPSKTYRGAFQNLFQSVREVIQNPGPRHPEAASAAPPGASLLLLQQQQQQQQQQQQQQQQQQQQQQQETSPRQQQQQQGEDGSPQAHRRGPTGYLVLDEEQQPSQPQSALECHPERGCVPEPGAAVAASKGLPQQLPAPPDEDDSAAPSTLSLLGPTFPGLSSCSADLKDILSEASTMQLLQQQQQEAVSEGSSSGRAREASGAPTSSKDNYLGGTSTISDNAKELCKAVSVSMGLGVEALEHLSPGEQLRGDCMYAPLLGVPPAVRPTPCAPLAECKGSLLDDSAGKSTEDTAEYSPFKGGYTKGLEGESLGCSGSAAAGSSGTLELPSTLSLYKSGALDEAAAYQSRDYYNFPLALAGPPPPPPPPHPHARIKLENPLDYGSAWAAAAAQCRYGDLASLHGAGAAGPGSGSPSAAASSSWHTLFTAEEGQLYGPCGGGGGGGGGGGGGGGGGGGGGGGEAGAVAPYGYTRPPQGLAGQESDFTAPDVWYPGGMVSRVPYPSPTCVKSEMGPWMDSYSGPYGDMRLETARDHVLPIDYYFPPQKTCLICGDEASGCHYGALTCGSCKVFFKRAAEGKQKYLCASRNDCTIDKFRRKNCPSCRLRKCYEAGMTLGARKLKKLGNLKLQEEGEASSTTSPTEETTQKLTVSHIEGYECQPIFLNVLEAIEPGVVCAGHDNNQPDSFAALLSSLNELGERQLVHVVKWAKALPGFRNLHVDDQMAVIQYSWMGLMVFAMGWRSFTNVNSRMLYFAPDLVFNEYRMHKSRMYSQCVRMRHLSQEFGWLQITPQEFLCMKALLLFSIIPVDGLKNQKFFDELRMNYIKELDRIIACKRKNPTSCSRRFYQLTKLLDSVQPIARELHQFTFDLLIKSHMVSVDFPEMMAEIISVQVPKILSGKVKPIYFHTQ
Description: After 18 h, reporter gene activities (LUC and beta-galactosidase) were determined according to standard methods. The data are expressed as relative LUC activity (luciferase light units divided by beta-galactosidase A420nm to control for transfection efficiency) of a given compound in relation to the activity of a reference test item (=100%).
Antagonism in WT AR of compounds of the present invention was measured in AR transctivation assay in COS-1 cells in competitive setting using testosterone as a reference agonist as described above. […] Relative LUC activity representing AR-dependent transcription obtained by exposure to testosterone alone was set to 100%.

T877A AR = biological target: T2, T877A AR (Homo sapiens, UniProt P10275, T878A); assay: Agonism in T877A mutant AR, AR transactivation assay in COS-1 cells, test compounds alone; settings: 10 microM, compound alone
T2 construct: expressed in transfected cells; host or cells: COS-1
T2 sequence (P10275 1-920 T878A): T1 sequence (P10275 1-920) with T878A
Description: The transfected cells were exposed to test compounds alone. Testosterone was used as reference agonist, and its' relative LUC activity representing AR-dependent transcription was set to 100%.

W741L AR = biological target: T3, W741L AR (Homo sapiens, UniProt P10275, W742L); assay: Agonism in W741L mutant AR, AR transactivation assay in COS-1 cells, test compounds alone; settings: 10 microM, compound alone
T3 construct: expressed in transfected cells; host or cells: COS-1
T3 sequence (P10275 1-920 W742L): T1 sequence (P10275 1-920) with W742L
Description: COS-1 (American Type Culture Collection) were cultured in DMEM supplemented with 10% FBS, penicillin (6.25 U/ml) and streptomycin (6.25 μg/ml) and seeded onto 48-well plates (50 000 cells/well) one day before transfection. Transfection media containing 2.5% charcoal-stripped FBS in DMEM was changed on cells 4 h prior to transfection. Cells were transfected with 50 ng of reporter gene plasmid (pPB-286/+32-LUC; PB, probasin promoter), 5 ng of AR expression plasmid (pSG5-hAR), and 5 ng of pCMVβ (an internal, beta-galactosidase control for transfection efficiency and cell growth) using TranslT-LT1 reagent (Mirus Bio Corporation) according to the manufacturer's instructions. […] After 18 h, reporter gene activities (LUC and beta-galactosidase) were determined according to standard methods. The data are expressed as relative LUC activity (luciferase light units divided by beta-galactosidase A420nm to control for transfection efficiency) of a given compound in relation to the activity of a reference test item (=100%).
Agonism in W741L AR of compounds of the present invention was measured in AR transactivation assay in COS-1 cells as described above except that AR expression vector harboring the W741L mutation was used instead of the WT AR. The transfected cells were exposed to test compounds alone.

Compound	Relative LUC activity (%) indicating residual androgen activity in relation to testosterone (100%) (WT AR; 1 microM compound) [%]	Relative LUC activity (%) indicating residual androgen activity in relation to testosterone (100%) (WT AR; 10 microM compound) [%]	Relative LUC activity (%) in T877A AR in relation to testosterone (100%) (T877A AR) [%]	Relative LUC activity (%) in W741L AR in relation to BIC (100%) (W741L AR) [%]
CCS(=O)(=O)CC(O)(C(=O)Nc1ccc(C#N)c(C(F)(F)F)c1)c1ccc(C(F)(F)F)cc1 (stereo not drawn) [Example 17, N-[4-cyano-3-(trifluoromethyl)phenyl]-3-(ethanesulfonyl)-2-[4-(trifuoromethyl)phenyl]-2-hydroxypropanamide]	18	3		
CCS(=O)(=O)CC(O)(C(=O)Nc1ccc(C#N)c(Cl)c1)c1ccc(F)c(F)c1 (stereo not drawn) [Example 5, N-(3-chloro-4-cyanophenyl)-2-(3,4-difluorophenyl)-3-(ethanesulfonyl)-2-hydroxypropanamide]			9	18
N#Cc1ccc(NC(=O)C(O)(CS(=O)(=O)Cc2ccco2)c2ccc(C(F)(F)F)cc2)cc1C(F)(F)F (stereo not drawn) [Example 3, N-[4-cyano-3-(trifluoro-methyl)phenyl]-3-[(furan-2-ylmethane)sulfonyl]-2-hydroxy-2-[4-(trifluoromethyl)phenyl]propanamide]	17	3	3	4
N#Cc1ccc(NC(=O)C(O)(CS(=O)(=O)c2ccc(F)c(F)c2)c2ccc(F)cc2)cc1Cl (stereo not drawn) [Example 6, N-(3-chloro-4-cyanophenyl)-3-[(3,4-difluorobenzene)sulfonyl]-2-(4-fluorophenyl)-2-hydroxypropanamide]	7	5		
N#Cc1ccc(NC(=O)C(O)(CS(=O)(=O)c2ccc(F)cc2)c2ccc(C(F)(F)F)cc2)cc1C(F)(F)F (stereo not drawn) [Example 21, N-(4-cyano-3-(trifluoromethyl)phenyl)-3-[(4-fluorobenzene)sulfonyl]-2-hydroxy-2-[4-(trifluoromethyl)phenyl]propanamide]	24	1	4	3
COc1ccc(C(O)(CS(=O)(=O)c2cccc(F)c2)C(=O)Nc2ccc(C#N)c(Cl)c2)cc1F (stereo not drawn) [Example 33, N-(3-chloro-4-cyanophenyl)-2-(3-fluoro-4-methoxyphenyl)-3-[(3-fluorobenzene)sulfonyl]-2-hydroxypropanamide]	5	1		
N#Cc1ccc(NC(=O)C(O)(CS(=O)(=O)c2cccc(F)c2)c2ccc(F)c(F)c2)cc1C(F)(F)F (stereo not drawn) [Example 39, N-[4-cyano-3-(trifluoromethyl)phenyl]-2-(3,4-difluorophenyl)-3-[(3-fluorobenzene)sulfonyl]-2-hydroxypropanamide]	14	2		
COc1ccc(C(O)(CS(=O)(=O)c2ccc(F)c(F)c2)C(=O)Nc2ccc(C#N)c(C(F)(F)F)c2)cc1F (stereo not drawn) [Example 22, N-(4-cyano-3-(trifluoromethyl)phenyl)-3-[(3,4-difluorobenzene)sulfonyl]-2-hydroxy-2-[3-fluoro-4-(methoxy)phenyl]propanamide]	9	3		
CC(C)CCS(=O)(=O)CC(O)(C(=O)Nc1ccc(C#N)c(C(F)(F)F)c1)c1ccc(F)cc1 (stereo not drawn) [Example 2, N-[4-cyano-3-(trifluoromethyl)phenyl]-2-(4-fluorophenyl)-2-hydroxy-3-[(3-methylbutane)-sulfonyl]propanamide]	12	3		
CCS(=O)(=O)CC(O)(C(=O)Nc1ccc(C#N)c(C(F)(F)F)c1)c1ccc(F)cc1 (stereo not drawn) [Example 1, N-[4-cyano-3-(trifluoro-methyl)phenyl]-3-(ethanesulfonyl)-2-(4-fluorophenyl)-2-hydroxypropanamide]			14	12
